According to PubChem BioAssay (NCI):
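Interpolation was linear, between the two tested concentrations surrounding the appropriate level; five concentrations were tested over 48 hours in 96-well plates. The concentration for 50% growth inhibition is given as GI50. TGI: concentration producing complete growth inhibition.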

Experiments:
Experiment in all cases: DTP human tumour cell line panel, 48 h
SK-OV-3 ovarian = system: SK-OV-3 ovarian
SN12C renal = system: SN12C renal
HL-60(TB) leukemia = system: HL-60(TB) leukemia
HT29 colon = system: HT29 colon
ACHN renal = system: ACHN renal
T-47D breast = system: T-47D breast
MCF7 breast = system: MCF7 breast
SF-268 CNS = system: SF-268 CNS
LOX IMVI melanoma = system: LOX IMVI melanoma
SK-MEL-5 melanoma = system: SK-MEL-5 melanoma
A549 NSCLC = system: A549 NSCLC
OVCAR-5 ovarian = system: OVCAR-5 ovarian
HCC-2998 colon = system: HCC-2998 colon
EKVX NSCLC = system: EKVX NSCLC
MALME-3M melanoma = system: MALME-3M melanoma
NCI-H460 lung = system: NCI-H460 lung
NCI-H226 lung = system: NCI-H226 lung
HOP-62 NSCLC = system: HOP-62 NSCLC
SK-MEL-28 melanoma = system: SK-MEL-28 melanoma
SR leukemia = system: SR leukemia
OVCAR-4 ovarian = system: OVCAR-4 ovarian
MDA-MB-468 breast = system: MDA-MB-468 breast
NCI-H23 lung = system: NCI-H23 lung
OVCAR-3 ovarian = system: OVCAR-3 ovarian
CAKI-1 renal = system: CAKI-1 renal
HCT-15 colon = system: HCT-15 colon
U251 CNS = system: U251 CNS
A498 renal = system: A498 renal
SF-539 CNS = system: SF-539 CNS
BT-549 breast = system: BT-549 breast
SNB-19 CNS = system: SNB-19 CNS
RPMI-8226 leukemia = system: RPMI-8226 leukemia
CCRF-CEM leukemia = system: CCRF-CEM leukemia
KM12 colon = system: KM12 colon
K-562 leukemia = system: K-562 leukemia
HOP-92 NSCLC = system: HOP-92 NSCLC
MDA-MB-231 breast = system: MDA-MB-231 breast
RXF 393 renal = system: RXF 393 renal
M14 melanoma = system: M14 melanoma
UACC-62 melanoma = system: UACC-62 melanoma
OVCAR-8 ovarian = system: OVCAR-8 ovarian
IGROV1 ovarian = system: IGROV1 ovarian
786-0 renal = system: 786-0 renal
UACC-257 melanoma = system: UACC-257 melanoma
NCI-H522 lung = system: NCI-H522 lung
DU-145 prostate = system: DU-145 prostate
SNB-75 CNS = system: SNB-75 CNS
SK-MEL-2 melanoma = system: SK-MEL-2 melanoma
TK-10 renal = system: TK-10 renal
MDA-MB-435 = system: MDA-MB-435
UO-31 renal = system: UO-31 renal
HS 578T breast = system: HS 578T breast
MOLT-4 leukemia = system: MOLT-4 leukemia
PC-3 prostate = system: PC-3 prostate
SW-620 colon = system: SW-620 colon
COLO 205 colon = system: COLO 205 colon
HCT-116 colon = system: HCT-116 colon
SF-295 CNS = system: SF-295 CNS

## O=C(O)c1ccc(-c2ccc(/C=N/NC(=O)c3[nH]c4ccc(Br)cc4c3-c3ccccc3)o2)cc1
SK-OV-3 ovarian
  GI50: 28.3 µM
  TGI: 76.7 µM
SN12C renal
  GI50: 24.8 µM
  TGI: 80.8 µM
HL-60(TB) leukemia
  GI50: 12.4 µM
  TGI: 36.1 µM
HT29 colon
  GI50: 21.9 µM
  TGI: 54.7 µM
ACHN renal
  GI50: 29.3 µM
  TGI: > 100 µM
T-47D breast
  GI50: 30.9 µM
  TGI: > 100 µM
MCF7 breast
  GI50: 28.3 µM
  TGI: > 100 µM
SF-268 CNS
  GI50: 20.8 µM
  TGI: > 100 µM
LOX IMVI melanoma
  GI50: 20 µM
  TGI: > 100 µM
SK-MEL-5 melanoma
  GI50: 15.7 µM
  TGI: 33 µM
A549 NSCLC
  GI50: 32.3 µM
  TGI: > 100 µM
OVCAR-5 ovarian
  GI50: 36.5 µM
  TGI: > 100 µM
HCC-2998 colon
  GI50: 16.1 µM
  TGI: 30.7 µM
EKVX NSCLC
  GI50: 28.8 µM
  TGI: > 100 µM
MALME-3M melanoma
  GI50: 19.1 µM
  TGI: > 100 µM
NCI-H460 lung
  GI50: 21.3 µM
  TGI: 72.8 µM
NCI-H226 lung
  GI50: 34.5 µM
  TGI: > 100 µM
HOP-62 NSCLC
  GI50: 29.5 µM
  TGI: > 100 µM
SK-MEL-28 melanoma
  GI50: 15.8 µM
  TGI: > 100 µM
SR leukemia
  GI50: 11.8 µM
  TGI: 45.6 µM
OVCAR-4 ovarian
  GI50: 21.1 µM
  TGI: > 100 µM
MDA-MB-468 breast
  GI50: 19.5 µM
  TGI: 79.6 µM
NCI-H23 lung
  GI50: 34.1 µM
  TGI: > 100 µM
OVCAR-3 ovarian
  GI50: 12.2 µM
  TGI: 43.1 µM
CAKI-1 renal
  GI50: 22 µM
  TGI: 98.7 µM
HCT-15 colon
  GI50: 18.6 µM
  TGI: > 100 µM
U251 CNS
  GI50: 20 µM
  TGI: 83.1 µM
A498 renal
  GI50: 23.6 µM
  TGI: 85.7 µM
SF-539 CNS
  GI50: 14.7 µM
  TGI: 36.7 µM
BT-549 breast
  GI50: 20.1 µM
  TGI: 51.7 µM
SNB-19 CNS
  GI50: 21.6 µM
  TGI: > 100 µM
RPMI-8226 leukemia
  GI50: 25.9 µM
  TGI: > 100 µM
CCRF-CEM leukemia
  GI50: 19.3 µM
  TGI: > 100 µM
KM12 colon
  GI50: 22.4 µM
  TGI: 66.2 µM
K-562 leukemia
  GI50: 20.8 µM
  TGI: 98.4 µM
HOP-92 NSCLC
  GI50: 10.6 µM
  TGI: 42.2 µM
MDA-MB-231 breast
  GI50: 27.9 µM
  TGI: > 100 µM
RXF 393 renal
  GI50: 11.3 µM
  TGI: 95.1 µM
M14 melanoma
  GI50: 29.8 µM
  TGI: > 100 µM
UACC-62 melanoma
  GI50: 4.98 µM
  TGI: 25.2 µM
OVCAR-8 ovarian
  GI50: 20.7 µM
  TGI: 63.4 µM
IGROV1 ovarian
  GI50: 25.3 µM
  TGI: 86.1 µM
786-0 renal
  GI50: 24.2 µM
  TGI: > 100 µM
UACC-257 melanoma
  GI50: 24.5 µM
  TGI: > 100 µM
NCI-H522 lung
  GI50: 7.64 µM
  TGI: 34.4 µM
DU-145 prostate
  GI50: 36.4 µM
  TGI: > 100 µM
SNB-75 CNS
  GI50: 4.02 µM
  TGI: 33.3 µM
SK-MEL-2 melanoma
  GI50: 14.6 µM
  TGI: 37.3 µM
TK-10 renal
  GI50: 38.7 µM
  TGI: > 100 µM
MDA-MB-435
  GI50: 12.5 µM
  TGI: 41.1 µM
UO-31 renal
  GI50: 25 µM
  TGI: > 100 µM
HS 578T breast
  GI50: 3.87 µM
  TGI: 72 µM
MOLT-4 leukemia
  GI50: 20.3 µM
  TGI: 96.6 µM
PC-3 prostate
  GI50: 25.1 µM
  TGI: > 100 µM
SW-620 colon
  GI50: 25.4 µM
  TGI: > 100 µM
COLO 205 colon
  GI50: 26.4 µM
  TGI: 83.8 µM
HCT-116 colon
  GI50: 27.7 µM
  TGI: > 100 µM
SF-295 CNS
  GI50: 20.4 µM
  TGI: 55.8 µM
